Data reported in patent publication US11078170B2 (Assembly Biosciences, Inc., priority 2017, dated 2021).

tested on: HBV viral production from HepAD38 cells; experiment: Activity of test compounds on viral production from HepAD38 cells (viral load by qPCR of HBV core sequence in supernatant); format: cell-based; settings: Hepatitis B virus, 120 h, 5 days incubation, HBV DNA in supernatant by qPCR, top concentration 10 μM, read-out: Viral Load EC50 Activity range
Procedure, shortened: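 HepAD38 cells, 50,000/well in tetracycline-free 2% FBS medium, treated 5 days at 37° C. with compound from 10 μM top concentration. HBV DNA in supernatant quantified by TaqMan qPCR of core sequence against DNA standards, relative to DMSO wells; CellTiter-Glo viability read in parallel. EC50/CC50 from four-parameter logistic fit.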

SMILES	EC50 [nM]
[2H]C1C([2H])(c2ccc(Br)s2)NS(=O)(=O)N(C([2H])([2H])[2H])C1([2H])C(=O)Nc1ccc(F)c(Cl)c1 (stereo not drawn) [HBV-CSU-372, Cis-5-(5-bromothiophen-2-yl)-N-(3-chloro-4-fluorophenyl)-2-(methyl-d3)-1,2,6-thiadiazinane-3,4,5-d3-3-carboxamide 1,1-dioxide]	< 1000
[2H]C([2H])([2H])N1[C@H](C(=O)Nc2ccc(F)c(Cl)c2)C[C@H](c2ccc(-c3cn(C)cn3)s2)NS1(=O)=O [HBV-CSU-373-ISO-I, Cis-N-(3-Chloro-4-fluorophenyl)-2-(methyl-d3)-5-(5-(1-methyl-1H-imidazol-4-yl)thiophen-2-yl)-1,2,6-thiadiazinane-3-carboxamide 1,1-dioxide]	< 1000
[2H]C([2H])([2H])N1C(C(=O)Nc2ccc(F)c(Cl)c2)CC(c2ccc(-c3cn(C)cn3)s2)NS1(=O)=O (centres unmarked) [HBV-CSU-373]	< 1000
[2H]C([2H])([2H])N1C(C(=O)Nc2ccc(F)c(Cl)c2)CC(c2ccc(-c3cn(C([2H])([2H])[2H])cn3)s2)NS1(=O)=O (centres unmarked) [HBV-CSU-374]	< 1000
[2H]C1C([2H])(c2ccc(-c3cn(C)cn3)s2)NS(=O)(=O)N(C)C1([2H])C(=O)Nc1ccc(F)c(Cl)c1 (stereo not drawn) [HBV-CSU-375, Cis-N-(3-Chloro-4-fluorophenyl)-2-methyl-5-(5-(1-methyl-1H-imidazol-4-yl)thiophen-2-yl)-1,2,6-thiadiazinane-3,4,5-d3-3-carboxamide 1,1-dioxide]	< 1000
[2H]C1C([2H])(c2ccc(-c3cn(C([2H])([2H])[2H])cn3)s2)NS(=O)(=O)N(C)C1([2H])C(=O)Nc1ccc(F)c(Cl)c1 (stereo not drawn) [HBV-CSU-376, Cis-N-(3-Chloro-4-fluorophenyl)-2-methyl-5-(5-(1-(methyl-d3)-1H-imidazol-4-yl)thiophen-2-yl)-1,2,6-thiadiazinane-3,4,5-d3-3-carboxamide 1,1-dioxide]	< 1000
[2H]C1C([2H])(c2ccc(-c3cn(C([2H])([2H])[2H])cn3)s2)NS(=O)(=O)N(C([2H])([2H])[2H])C1([2H])C(=O)Nc1ccc(F)c(Cl)c1 (stereo not drawn) [HBV-CSU-378, Cis-N-(3-chloro-4-fluorophenyl)-2-(methyl-d3)-5-(5-(1-(methyl-d3)-1H-imidazol-4-yl)thiophen-2-yl)-1,2,6-thiadiazinane-3,4,5-d3-3-carboxamide 1,1-dioxide]	< 1000
CN1[C@H](C(=O)Nc2ccc(F)c(Br)c2)C[C@H](c2ncc(Br)s2)NS1(=O)=O [HBV-CSU-383, (3S,5R)—N-(3-bromo-4-fluorophenyl)-5-(5-bromothiazol-2-yl)-2-methyl-1,2,6-thiadiazinane-3-carboxamide 1,1-dioxide]	< 1000
